Test results published in PubChem BioAssay AID248 (DTP/NCI, 2004).
Where “and” joins values, the source holds several entries; their conditions need not be identical. Equal values may be shown once. Inconclusive results and toxic doses are left out. No stated cut-off is given here; in the data, active means T/C of 150% or more; inactive means T/C below 125%.

Test system: L1210 leukemia ip in BDF1 mice, survival T/C
Experiment: NCI In Vivo Anticancer Drug Screen. Data for tumor model L1210 Leukemia (intraperitoneal) in B6D2F1 (BDF1) mice
Conditions: endpoint: mean survival time, higher = longer survival
Method in brief: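 In this screen, tumor-bearing mice given compound are compared to those given vehicle, and their survival values are reported as a treated-to-control quotient.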

[1] = dose: 100.0 mg/kg/injection, schedule: Q01DX009 (ip), vehicle: Klucel (hydroxypropylcellulose) (HPC)
[2] = dose: 100.0 mg/kg/injection, schedule: Q04DX003 (ip), vehicle: Klucel (hydroxypropylcellulose) (HPC)
[3] = dose: 200.0 mg/kg/injection, schedule: Q01DX009 (ip), vehicle: Klucel (hydroxypropylcellulose) (HPC)
[4] = dose: 200.0 mg/kg/injection, schedule: Q04DX003 (ip), vehicle: Klucel (hydroxypropylcellulose) (HPC)
[5] = dose: 400.0 mg/kg/injection, schedule: Q01DX009 (ip), vehicle: Klucel (hydroxypropylcellulose) (HPC)
[6] = dose: 400.0 mg/kg/injection, schedule: Q04DX003 (ip), vehicle: Klucel (hydroxypropylcellulose) (HPC)
[7] = dose: 25.0 mg/kg/injection, schedule: Q01DX009 (ip), vehicle: saline with Tween-80
[8] = dose: 50.0 mg/kg/injection, schedule: Q01DX009 (ip), vehicle: saline with Tween-80
[9] = dose: 100.0 mg/kg/injection, schedule: Q01DX009 (ip), vehicle: saline with Tween-80
[10] = dose: 100.0 mg/kg/injection, schedule: Q04DX003 (ip), vehicle: saline
[11] = dose: 200.0 mg/kg/injection, schedule: Q04DX003 (ip), vehicle: saline
[12] = dose: 100.0 mg/kg/injection, schedule: Q04DX003 (ip), vehicle: saline with Tween-80
[13] = dose: 200.0 mg/kg/injection, schedule: Q01DX009 (ip), vehicle: saline with Tween-80
[14] = dose: 100.0 mg/kg/injection, schedule: Q04DX002 (ip), vehicle: Klucel (hydroxypropylcellulose) (HPC)
[15] = dose: 200.0 mg/kg/injection, schedule: Q04DX002 (ip), vehicle: Klucel (hydroxypropylcellulose) (HPC)
[16] = dose: 400.0 mg/kg/injection, schedule: Q04DX002 (ip), vehicle: Klucel (hydroxypropylcellulose) (HPC)

Measured: T/C

COC(=O)CC(=O)c1ccc(C)cc1
inactive: [1] 101 % of control | [2] 108 % of control | [3] 95 % of control | [4] 111 % of control | [5] 104 % of control | [6] 95 % of control

CCOC(=O)/C=C\C(=O)O.[Mn]
inactive: [7] 97 % of control | dose: 25.0 mg/kg/injection, schedule: Q04DX003 (ip), vehicle: saline 108 % of control | [8] 108 % of control | dose: 50.0 mg/kg/injection, schedule: Q04DX003 (ip), vehicle: saline 106 % of control | [9] 110 % of control | [10] 103 % of control and 108 % of control | [11] 120 % of control

CC(=O)OC1C(COS(=O)(=O)c2ccc(C)cc2)OCOC(COS(=O)(=O)c2ccc(C)cc2)C1OC(C)=O (centres undefined)
inactive: dose: 100.0 mg/kg/injection, schedule: Q01DX001 (ip), vehicle: Klucel (hydroxypropylcellulose) (HPC) 100 % of control | dose: 200.0 mg/kg/injection, schedule: Q01DX001 (ip), vehicle: Klucel (hydroxypropylcellulose) (HPC) 93 % of control | dose: 400.0 mg/kg/injection, schedule: Q01DX001 (ip), vehicle: Klucel (hydroxypropylcellulose) (HPC) 90 % of control

CCCCC/C(=N\OC(=O)NC)C(F)(F)F
inactive: dose: 5.0 mg/kg/injection, schedule: Q01DX001 (ip), vehicle: saline 96 % of control | dose: 10.0 mg/kg/injection, schedule: Q01DX001 (ip), vehicle: saline 104 % of control | dose: 20.0 mg/kg/injection, schedule: Q01DX001 (ip), vehicle: saline 100 % of control | dose: 40.0 mg/kg/injection, schedule: Q01DX001 (ip), vehicle: saline 98 % of control | dose: 80.0 mg/kg/injection, schedule: Q01DX001 (ip), vehicle: saline 94 % of control

C=C(C(=O)c1ccccc1)C(O)c1ccccc1 (centres undefined)
inactive: [9] 104 % of control | [12] 100 % of control | [13] 90 % of control | dose: 200.0 mg/kg/injection, schedule: Q04DX003 (ip), vehicle: saline with Tween-80 100 % of control | dose: 400.0 mg/kg/injection, schedule: Q04DX003 (ip), vehicle: saline with Tween-80 97 % of control

CCOC(=O)c1cnc(SC)nc1Oc1ccccc1F
inactive: [1] 105 % of control | [2] 96 % of control | [3] 96 % of control | [4] 119 % of control | [5] 97 % of control | [6] 91 % of control

COc1ccc2c(c1)sc1ncnc(N)c12
inactive: dose: 50.0 mg/kg/injection, schedule: Q01DX009 (ip), vehicle: Klucel (hydroxypropylcellulose) (HPC) 105 % of control | [1] 105 % of control | [3] 101 % of control

CCCCSC(N)=O
inactive: [9] 103 % of control | [14] 94 % of control | [13] 105 % of control | [15] 97 % of control | dose: 400.0 mg/kg/injection, schedule: Q01DX009 (ip), vehicle: saline with Tween-80 119 % of control | [16] 90 % of control

CN1CCC=C(C(C)(C)O)C1
inactive: [10] 101 % of control | [11] 100 % of control | dose: 400.0 mg/kg/injection, schedule: Q04DX003 (ip), vehicle: saline 106 % of control

O=C(O)c1ccc2c(=O)[nH][nH]c(=O)c2c1
inactive: dose: 87.5 mg/kg/injection, schedule: Q01DX009 (ip), vehicle: Klucel (hydroxypropylcellulose) (HPC) 101 % of control | dose: 175.0 mg/kg/injection, schedule: Q01DX009 (ip), vehicle: Klucel (hydroxypropylcellulose) (HPC) 96 % of control | dose: 350.0 mg/kg/injection, schedule: Q01DX009 (ip), vehicle: Klucel (hydroxypropylcellulose) (HPC) 102 % of control

C/C=C/CC1(C(C)C)C(=O)NC(=O)NC1=O
inactive: dose: 75.0 mg/kg/injection, schedule: Q01DX001 (ip), vehicle: other 103 % of control | dose: 75.0 mg/kg/injection, schedule: Q01DX001 (ip), vehicle: saline 101 % of control | dose: 150.0 mg/kg/injection, schedule: Q01DX001 (ip), vehicle: other 105 % of control | dose: 150.0 mg/kg/injection, schedule: Q01DX001 (ip), vehicle: saline 104 % of control

O=C(O)c1cc(Br)c2ccccc2c1O
inactive: dose: 25.0 mg/kg/injection, schedule: Q01DX009 (ip), vehicle: saline sonified 103 % of control | dose: 50.0 mg/kg/injection, schedule: Q01DX009 (ip), vehicle: saline sonified 108 % of control | dose: 100.0 mg/kg/injection, schedule: Q01DX009 (ip), vehicle: saline sonified 100 % of control | [2] 104 % of control

O=C(/C=C/C=[N+](/[O-])O)c1cncc(F)c1
inactive: dose: 100.0 mg/kg/injection, schedule: Q04DX002 (ip), vehicle: saline 93 % of control | dose: 200.0 mg/kg/injection, schedule: Q04DX002 (ip), vehicle: saline 101 % of control | dose: 400.0 mg/kg/injection, schedule: Q04DX002 (ip), vehicle: saline 93 % of control

CCOC(=O)C1(C(C)C)OC2(O)C3CCCN3CC(C(C)C)N2C1=O (centres undefined)
inactive: dose: 6.25 mg/kg/injection, schedule: Q01DX009 (ip), vehicle: saline with Tween-80 100 % of control | dose: 12.5 mg/kg/injection, schedule: Q01DX009 (ip), vehicle: saline with Tween-80 113 % of control | [7] 100 % of control | dose: 25.0 mg/kg/injection, schedule: Q04DX003 (ip), vehicle: saline with Tween-80 94 % of control | [8] 103 % of control | dose: 50.0 mg/kg/injection, schedule: Q04DX003 (ip), vehicle: saline with Tween-80 103 % of control | [9] 96 % of control | [12] 94 % of control

COc1ccc(C(=O)Nc2ccc(C)c(Cl)c2)cc1
inactive: [14] 115 % of control | [15] 115 % of control | [16] 112 % of control

N=C(N)N=Nc1c(O)[nH]c2ccccc12
inactive: dose: 15.0 mg/kg/injection, schedule: Q01DX Z (ip), vehicle: saline 103 % of control | dose: 30.0 mg/kg/injection, schedule: Q01DX Z (ip), vehicle: saline 100 % of control | dose: 37.5 mg/kg/injection, schedule: Q01DX Z (oral), vehicle: carboxymethylcellulose (CMC) 102 % of control | dose: 60.0 mg/kg/injection, schedule: Q01DX Z (ip), vehicle: saline 94 % of control | dose: 75.0 mg/kg/injection, schedule: Q01DX Z (oral), vehicle: carboxymethylcellulose (CMC) 98 % of control | dose: 120.0 mg/kg/injection, schedule: Q01DX Z (ip), vehicle: saline 90 % of control | dose: 120.0 mg/kg/injection, schedule: Q01DX Z (oral), vehicle: other 95 % of control | dose: 150.0 mg/kg/injection, schedule: Q01DX Z (oral), vehicle: carboxymethylcellulose (CMC) 105 % of control | dose: 240.0 mg/kg/injection, schedule: Q01DX Z (oral), vehicle: other 98 % of control

COC(=N)c1ccc(Cl)cc1
inactive: [9] 88 % of control | [13] 93 % of control

CSc1ccc(NC(=O)C2CCCCC2C(=O)O)cc1 (centres undefined)
inactive: [14] 92 % of control | [15] 111 % of control | [16] 96 % of control

COc1ccc(C)cc1N=Nc1cc(C)ccc1OC
inactive: dose: 100.0 mg/kg/injection, schedule: Q01DX009 (ip), vehicle: gum acacia 100 % of control | dose: 100.0 mg/kg/injection, schedule: Q04DX003 (ip), vehicle: gum acacia 91 % of control | dose: 200.0 mg/kg/injection, schedule: Q01DX009 (ip), vehicle: gum acacia 91 % of control | dose: 200.0 mg/kg/injection, schedule: Q04DX003 (ip), vehicle: gum acacia 86 % of control | dose: 400.0 mg/kg/injection, schedule: Q01DX009 (ip), vehicle: gum acacia 88 % of control | dose: 400.0 mg/kg/injection, schedule: Q04DX003 (ip), vehicle: gum acacia 92 % of control
